Experimental data reported in US8921362B2, “6,7-dialkoxy quinazoline derivatives and methods of treating drug resistant and other tumors” (Natco Pharma Limited, priority 2008, dated 2014).

Legend:
Experiment in all cases: KinomeScan
Type in all cases: binding
Settings in all cases: read-out: % Ctrl @ 10000 nM
[1] = target: T1, ABL1(H396P) (Homo sapiens, UniProt P00519, H396P)
T1 construct: host or cells: E. coli (BL21-derived), T7 phage lysate
Method in brief: (§1)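 An active-site competition format was used, with T7 phage displaying the kinase and affinity beads carrying immobilized ligand. Blocking buffer contained SeaBlock, 1% BSA, 0.05% Tween 20 and 1 mM DTT.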

[2] = target: T2, AKT3 (Homo sapiens, UniProt Q9Y243)
T2 construct: host or cells: E. coli (BL21-derived), T7 phage lysate
T2 sequence (Q9Y243 whole entry): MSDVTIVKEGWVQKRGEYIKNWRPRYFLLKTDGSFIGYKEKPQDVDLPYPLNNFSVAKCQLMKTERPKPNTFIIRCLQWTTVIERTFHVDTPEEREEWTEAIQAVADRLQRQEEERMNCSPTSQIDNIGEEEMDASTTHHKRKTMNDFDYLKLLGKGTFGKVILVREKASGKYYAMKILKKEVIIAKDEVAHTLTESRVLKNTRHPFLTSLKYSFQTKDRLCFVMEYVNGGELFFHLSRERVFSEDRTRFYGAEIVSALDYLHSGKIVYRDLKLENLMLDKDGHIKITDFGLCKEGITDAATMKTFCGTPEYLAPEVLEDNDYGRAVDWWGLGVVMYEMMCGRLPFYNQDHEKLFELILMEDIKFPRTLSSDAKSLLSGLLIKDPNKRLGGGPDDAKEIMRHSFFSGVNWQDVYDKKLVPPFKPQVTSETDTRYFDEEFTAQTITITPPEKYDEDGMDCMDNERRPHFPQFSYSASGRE
Method in brief: as §1

[3] = target: T3, AURKB (Homo sapiens, UniProt Q96GD4)
T3 construct: host or cells: E. coli host derived from BL21
Method in brief: as §1

[4] = target: T4, AURKC (Homo sapiens, UniProt Q9UQB9)
T4 construct: host or cells: E. coli host derived from BL21
T4 sequence (Q9UQB9 whole entry): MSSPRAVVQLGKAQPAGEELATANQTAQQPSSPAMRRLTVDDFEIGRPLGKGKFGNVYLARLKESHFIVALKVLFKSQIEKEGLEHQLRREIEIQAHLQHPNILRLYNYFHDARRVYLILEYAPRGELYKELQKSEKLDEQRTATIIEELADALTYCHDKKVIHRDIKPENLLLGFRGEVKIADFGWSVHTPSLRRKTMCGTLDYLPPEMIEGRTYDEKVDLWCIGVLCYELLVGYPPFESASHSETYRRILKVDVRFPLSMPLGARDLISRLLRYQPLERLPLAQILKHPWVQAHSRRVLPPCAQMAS
Method in brief: as §1

[5] = target: T5, BRSK2 (Homo sapiens, UniProt Q8IWQ3)
T5 construct: host or cells: E. coli host derived from BL21
Method in brief: as §1

[6] = target: T6, CDC2L2 (Homo sapiens, UniProt Q9UQ88)
T6 construct: host or cells: T7 phage in E. coli host derived from BL21
T6 sequence (Q9UQ88 whole entry): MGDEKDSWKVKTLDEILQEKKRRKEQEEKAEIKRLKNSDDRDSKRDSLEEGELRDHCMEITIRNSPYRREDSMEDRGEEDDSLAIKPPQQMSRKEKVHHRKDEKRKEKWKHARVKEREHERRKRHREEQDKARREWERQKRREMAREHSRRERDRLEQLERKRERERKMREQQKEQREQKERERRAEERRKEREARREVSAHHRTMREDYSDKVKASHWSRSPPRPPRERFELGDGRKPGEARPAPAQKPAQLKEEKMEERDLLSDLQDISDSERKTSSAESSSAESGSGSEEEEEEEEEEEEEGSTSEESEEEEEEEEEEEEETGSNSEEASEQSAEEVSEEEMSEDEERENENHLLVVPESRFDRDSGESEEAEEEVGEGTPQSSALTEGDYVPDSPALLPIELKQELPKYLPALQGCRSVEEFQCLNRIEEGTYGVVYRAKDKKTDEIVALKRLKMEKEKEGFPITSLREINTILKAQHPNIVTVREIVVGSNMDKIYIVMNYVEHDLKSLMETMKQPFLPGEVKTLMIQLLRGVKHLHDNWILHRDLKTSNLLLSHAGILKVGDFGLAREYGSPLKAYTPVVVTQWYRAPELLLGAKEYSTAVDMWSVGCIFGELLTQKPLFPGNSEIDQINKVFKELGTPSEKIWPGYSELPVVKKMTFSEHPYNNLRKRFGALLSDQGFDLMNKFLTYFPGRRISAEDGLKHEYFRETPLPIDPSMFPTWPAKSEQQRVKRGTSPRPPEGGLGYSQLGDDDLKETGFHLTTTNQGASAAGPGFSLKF
Method in brief: as §1

[7] = target: T7, CDK11 (Homo sapiens, UniProt Q9BWU1)
T7 construct: host or cells: T7 phage in E. coli host derived from BL21
Method in brief: as §1

[8] = target: T8, CDK8 (Homo sapiens, UniProt P49336)
T8 construct: host or cells: T7 phage in E. coli host derived from BL21
Method in brief: as §1

[9] = target: T9, CDK9 (Homo sapiens, UniProt P50750)
T9 construct: host or cells: T7 phage in E. coli host derived from BL21
Method in brief: as §1

[10] = target: T10, CSF1R (Homo sapiens, UniProt P07333)
T10 construct: host or cells: T7 phage in E. coli host derived from BL21
Method in brief: as §1

[11] = target: T11, CSNK1E (Homo sapiens, UniProt P49674)
T11 construct: host or cells: T7 phage in E. coli host derived from BL21
Method in brief: as §1

[12] = target: T12, EPHA2 (Homo sapiens, UniProt P29317)
T12 construct: purchased Ambit Biosciences Corp; host or cells: T7 phage in E. coli host derived from BL21
T12 sequence (P29317 24-976): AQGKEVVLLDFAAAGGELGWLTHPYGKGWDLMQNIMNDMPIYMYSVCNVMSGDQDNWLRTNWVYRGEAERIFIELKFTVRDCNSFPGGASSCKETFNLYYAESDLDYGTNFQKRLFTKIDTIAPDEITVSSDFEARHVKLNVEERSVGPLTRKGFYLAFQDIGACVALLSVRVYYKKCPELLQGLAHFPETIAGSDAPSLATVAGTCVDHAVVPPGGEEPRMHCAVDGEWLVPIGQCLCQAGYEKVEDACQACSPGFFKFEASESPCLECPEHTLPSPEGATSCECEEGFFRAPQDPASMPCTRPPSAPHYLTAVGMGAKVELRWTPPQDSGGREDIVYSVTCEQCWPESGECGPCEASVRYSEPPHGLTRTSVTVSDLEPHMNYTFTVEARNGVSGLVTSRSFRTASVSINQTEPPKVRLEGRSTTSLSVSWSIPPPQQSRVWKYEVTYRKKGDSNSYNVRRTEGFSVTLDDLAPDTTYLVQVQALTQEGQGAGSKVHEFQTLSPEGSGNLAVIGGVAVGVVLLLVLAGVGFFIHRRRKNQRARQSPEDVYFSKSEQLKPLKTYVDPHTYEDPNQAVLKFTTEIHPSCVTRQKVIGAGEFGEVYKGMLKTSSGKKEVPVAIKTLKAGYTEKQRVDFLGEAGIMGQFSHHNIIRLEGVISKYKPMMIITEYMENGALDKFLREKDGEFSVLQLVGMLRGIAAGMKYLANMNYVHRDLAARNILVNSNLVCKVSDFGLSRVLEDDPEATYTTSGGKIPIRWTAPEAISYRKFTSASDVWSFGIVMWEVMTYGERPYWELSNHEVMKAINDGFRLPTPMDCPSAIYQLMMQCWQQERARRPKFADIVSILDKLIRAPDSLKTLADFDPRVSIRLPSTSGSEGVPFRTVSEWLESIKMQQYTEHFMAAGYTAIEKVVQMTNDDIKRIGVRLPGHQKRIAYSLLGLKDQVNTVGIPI
Method in brief: as §1

[13] = target: T13, EPHA3 (Homo sapiens, UniProt P29320)
T13 construct: purchased Ambit Biosciences Corp; host or cells: T7 phage in E. coli host derived from BL21
Method in brief: as §1

[14] = target: T14, EPHA4 (Homo sapiens, UniProt P54764)
T14 construct: purchased Ambit Biosciences Corp; host or cells: T7 phage in E. coli host derived from BL21
Method in brief: as §1

[15] = target: T15, ERK4 (Homo sapiens, UniProt P31152)
T15 construct: purchased Ambit Biosciences Corp; host or cells: T7 phage in E. coli host derived from BL21
Method in brief: as §1

[16] = target: T16, FGFR4 (Homo sapiens, UniProt P22455)
T16 construct: host or cells: T7 phage in E. coli host derived from BL21
Method in brief: as §1

[17] = target: T17, FGR (Homo sapiens, UniProt P09769)
T17 construct: host or cells: T7 phage in E. coli host derived from BL21
Method in brief: as §1

[18] = target: T18, KIT(V559D, T670I) (Homo sapiens, UniProt P10721, T670I/V559D)
T18 construct: host or cells: T7 phage grown in E. coli host derived from BL21
Method in brief: as §1

[19] = target: T19, MEK2 (Homo sapiens, UniProt P36507)
T19 construct: host or cells: E. coli host derived from the BL21 strain, infected with T7 phage
Method in brief: as §1

[20] = target: T20, MERTK (Homo sapiens, UniProt Q12866)
T20 construct: host or cells: E. coli host derived from the BL21 strain, infected with T7 phage
Method in brief: as §1

[21] = target: T21, MYO3A (Homo sapiens, UniProt Q8NEV4)
T21 construct: host or cells: T7 phage grown in E. coli host derived from BL21
Method in brief: as §1

[22] = target: T22, NDR2 (Homo sapiens, UniProt Q9Y2H1)
T22 construct: host or cells: T7 phage grown in E. coli host derived from BL21
Method in brief: as §1

[23] = target: T23, PAK6 (Homo sapiens, UniProt Q9NQU5)
T23 construct: host or cells: E. coli host derived from BL21, infected with T7 phage
Method in brief: as §1

[24] = target: T24, PIK3CA(E545K) (Homo sapiens, UniProt P42336, E545K)
T24 construct: host or cells: E. coli host derived from BL21, infected with T7 phage
Method in brief: as §1

[25] = target: T25, PIK3CD (Homo sapiens, UniProt O00329)
T25 construct: host or cells: T7 phage in E. coli host derived from BL21
Method in brief: as §1

[26] = target: T26, PRKD1 (Homo sapiens, UniProt Q15139)
T26 construct: host or cells: T7 phage in E. coli host derived from BL21
Method in brief: as §1

[27] = target: T27, RIOK3 (Homo sapiens, UniProt O14730)
T27 construct: host or cells: E. coli host derived from BL21, T7 phage display
T27 sequence (O14730 whole entry): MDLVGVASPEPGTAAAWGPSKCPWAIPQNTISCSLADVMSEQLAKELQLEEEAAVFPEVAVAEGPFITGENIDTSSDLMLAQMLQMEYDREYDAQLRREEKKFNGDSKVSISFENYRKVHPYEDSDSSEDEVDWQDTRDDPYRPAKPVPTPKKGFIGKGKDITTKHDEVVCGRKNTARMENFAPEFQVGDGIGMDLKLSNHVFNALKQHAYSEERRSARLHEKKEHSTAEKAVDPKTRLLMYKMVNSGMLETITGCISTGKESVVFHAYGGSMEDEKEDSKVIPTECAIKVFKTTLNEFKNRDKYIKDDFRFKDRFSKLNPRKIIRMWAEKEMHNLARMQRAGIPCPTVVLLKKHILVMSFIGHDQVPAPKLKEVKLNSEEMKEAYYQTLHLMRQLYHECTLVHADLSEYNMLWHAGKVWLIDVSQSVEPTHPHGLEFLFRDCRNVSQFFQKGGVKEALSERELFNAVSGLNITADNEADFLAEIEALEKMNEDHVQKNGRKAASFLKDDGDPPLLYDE
Method in brief: as §1

[28] = target: T28, RPS6KA1(Kin.Dom.-1-N-terminal) (Homo sapiens, UniProt Q15418)
T28 construct: RPS6KA1(Kin.Dom.-1-N-terminal); host or cells: E. coli host derived from BL21, T7 phage display
Method in brief: as §1

[29] = target: T29, RPS6KA3(Kin.Dom.-1-N-terminal) (Homo sapiens, UniProt P51812)
T29 construct: RPS6KA3(Kin.Dom.-1-N-terminal); host or cells: E. coli host derived from BL21, T7 phage display
Method in brief: as §1

[30] = target: T30, SRPK2 (Homo sapiens, UniProt P78362)
T30 construct: host or cells: T7 phage grown in E. coli (BL21-derived)
T30 sequence (P78362 whole entry): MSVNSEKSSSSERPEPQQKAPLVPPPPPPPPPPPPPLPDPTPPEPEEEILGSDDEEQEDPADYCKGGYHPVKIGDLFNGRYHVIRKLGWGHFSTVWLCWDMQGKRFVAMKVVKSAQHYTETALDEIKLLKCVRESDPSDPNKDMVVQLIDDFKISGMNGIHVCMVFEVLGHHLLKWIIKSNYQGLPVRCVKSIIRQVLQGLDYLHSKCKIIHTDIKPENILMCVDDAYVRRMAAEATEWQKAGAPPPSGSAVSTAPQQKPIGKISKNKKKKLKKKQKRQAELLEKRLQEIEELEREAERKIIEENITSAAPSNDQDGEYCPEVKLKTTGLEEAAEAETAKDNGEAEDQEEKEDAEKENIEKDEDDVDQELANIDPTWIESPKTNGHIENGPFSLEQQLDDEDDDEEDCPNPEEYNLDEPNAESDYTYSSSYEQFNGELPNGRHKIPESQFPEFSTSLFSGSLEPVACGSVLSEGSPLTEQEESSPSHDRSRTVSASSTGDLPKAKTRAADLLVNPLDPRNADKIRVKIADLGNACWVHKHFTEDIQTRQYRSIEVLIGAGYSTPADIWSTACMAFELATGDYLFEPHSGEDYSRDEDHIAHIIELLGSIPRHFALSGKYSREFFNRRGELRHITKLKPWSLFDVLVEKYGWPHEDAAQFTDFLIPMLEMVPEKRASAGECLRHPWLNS
Method in brief: as §1

[31] = target: T31, STK35 (Homo sapiens, UniProt Q8TDR2)
T31 construct: host or cells: T7 phage grown in E. coli (BL21-derived)
Method in brief: as §1

[32] = target: T32, TIE1 (Homo sapiens, UniProt P35590)
T32 construct: host or cells: T7 phage grown in E. coli (BL21-derived)
T32 sequence (P35590 22-1138): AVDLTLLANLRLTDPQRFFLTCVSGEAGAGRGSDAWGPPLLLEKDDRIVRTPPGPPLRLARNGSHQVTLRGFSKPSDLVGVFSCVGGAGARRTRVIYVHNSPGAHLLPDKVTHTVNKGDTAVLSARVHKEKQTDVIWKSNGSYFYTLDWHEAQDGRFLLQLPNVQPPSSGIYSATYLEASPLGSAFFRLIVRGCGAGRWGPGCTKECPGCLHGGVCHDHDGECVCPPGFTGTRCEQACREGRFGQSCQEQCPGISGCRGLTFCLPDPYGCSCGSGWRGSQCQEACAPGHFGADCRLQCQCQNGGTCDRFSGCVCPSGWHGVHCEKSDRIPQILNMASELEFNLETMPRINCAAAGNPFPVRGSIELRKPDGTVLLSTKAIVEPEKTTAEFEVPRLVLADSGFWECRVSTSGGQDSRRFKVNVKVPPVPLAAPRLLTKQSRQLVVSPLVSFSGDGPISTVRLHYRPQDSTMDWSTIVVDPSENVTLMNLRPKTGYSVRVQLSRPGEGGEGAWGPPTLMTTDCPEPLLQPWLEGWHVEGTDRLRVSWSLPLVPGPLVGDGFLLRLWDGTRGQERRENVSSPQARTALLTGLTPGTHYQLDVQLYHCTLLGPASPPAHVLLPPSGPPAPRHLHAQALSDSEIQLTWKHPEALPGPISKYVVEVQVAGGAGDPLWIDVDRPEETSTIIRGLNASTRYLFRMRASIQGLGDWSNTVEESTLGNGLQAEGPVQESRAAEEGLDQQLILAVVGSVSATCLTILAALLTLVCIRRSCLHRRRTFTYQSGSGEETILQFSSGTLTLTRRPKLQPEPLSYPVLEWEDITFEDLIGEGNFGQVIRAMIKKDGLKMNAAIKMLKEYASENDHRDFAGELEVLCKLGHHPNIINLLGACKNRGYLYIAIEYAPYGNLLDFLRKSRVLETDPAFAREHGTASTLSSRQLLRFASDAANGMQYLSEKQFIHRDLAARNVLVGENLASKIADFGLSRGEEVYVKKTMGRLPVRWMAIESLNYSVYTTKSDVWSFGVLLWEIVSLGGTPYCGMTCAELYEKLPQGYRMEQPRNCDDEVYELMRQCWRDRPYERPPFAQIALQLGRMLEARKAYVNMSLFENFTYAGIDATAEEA
Method in brief: as §1

[33] = target: T33, TNK2 (Homo sapiens, UniProt Q07912)
T33 construct: host or cells: E. coli host derived from BL21, T7 phage
Method in brief: as §1

In the case of C#Cc1cccc(Nc2ncnc3cc(OC)c(OCCCN4CCOCC4)cc23)c1 [NRC-2694, N-(3-ethynylphenyl)-7-methoxy-6-[3-(4-morpholinyl)propoxy]-4-quinazolinamine], the remaining binding at 10 µM [1] is reported as 34%, the remaining binding at 10 µM [2] is reported as 66% and the remaining binding at 10 µM [3] is reported as 56%. It also gave a remaining binding at 10 µM [4] of 47%, a remaining binding at 10 µM [5] of 33% and a remaining binding at 10 µM [6] of 37%. The remaining binding at 10 µM [7] was 87%, the remaining binding at 10 µM [8] was 100% and the remaining binding at 10 µM [9] was 86%. The remaining binding at 10 µM [10] was 50%, the remaining binding at 10 µM [11] was 9.6% and the remaining binding at 10 µM [12] was 100%. The remaining binding at 10 µM [13] was 56%, the remaining binding at 10 µM [14] was 64% and the remaining binding at 10 µM [15] was 3.7%. It also gave a remaining binding at 10 µM [16] of 69%, a remaining binding at 10 µM [17] of 19% and a remaining binding at 10 µM [18] of 28%. For the same compound, the remaining binding at 10 µM [19] was 44%, the remaining binding at 10 µM [20] was 48% and the remaining binding at 10 µM [21] was 70%. The remaining binding at 10 µM [22] was 74%, the remaining binding at 10 µM [23] was 70% and the remaining binding at 10 µM [24] was 100%. For the same compound, the remaining binding at 10 µM [25] was 89%, the remaining binding at 10 µM [26] was 9.6% and the remaining binding at 10 µM [27] was 37%. The remaining binding at 10 µM [28] was 100%, the remaining binding at 10 µM [29] was 94% and the remaining binding at 10 µM [30] was 73%. For the same compound, the remaining binding at 10 µM [31] was 52%, the remaining binding at 10 µM [32] was 52% and the remaining binding at 10 µM [33] was 37%.
